“And” between values parts separate entries of the source, which are not always exact repeats. Identical values can stand only once.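 Test compounds were applied to cells in 96-well plates for 48 hours at 5 doses. Abbreviation: GI50, concentration required for 50% inhibition of growth. Definition used: TGI = concentration required for complete inhibition of growth.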
What was measured:
Assay in all cases: NCI tumour cell line growth inhibition, 48 h
[1] = tested on: HCT-116 colon
[2] = tested on: CAKI-1 renal
[3] = tested on: HOP-92 NSCLC
[4] = tested on: KM12 colon
[5] = tested on: SK-MEL-2 melanoma
[6] = tested on: SW-620 colon
[7] = tested on: IGROV1 ovarian
[8] = tested on: NCI-H460 lung
[9] = tested on: MCF7 breast
[10] = tested on: HS 578T breast

Structure (SMILES): Nc1c2ccccc2nc2c1ccc1ncccc12
- TGI [1]: > 100 µM
- TGI [2]: 92.1 µM
- TGI [3]: > 100 µM
- TGI [4]: 52.6 µM
- TGI [5]: 42.1 µM
- TGI [6]: > 100 µM
- TGI [7]: > 100 µM
- TGI [8]: 47.4 µM
- TGI [9]: 72.1 µM

Structure (SMILES): CCOC(=O)C1=C(C(C)=O)CSC(c2ccccc2)=N1
- TGI [1]: > 100 µM
- TGI [2]: > 100 µM
- TGI [3]: > 100 µM
- TGI [4]: > 100 µM
- TGI [5]: > 100 µM
- TGI [6]: > 100 µM
- TGI [7]: > 100 µM
- TGI [8]: > 100 µM
- TGI [9]: > 100 µM

Structure (SMILES): COC(=O)c1c(C)cccc1/C=C1/Cc2c(C)cccc2C1=O
- TGI [10]: > 100 µM
- TGI [1]: > 100 µM
- TGI [2]: > 100 µM
- TGI [3]: > 100 µM
- TGI [4]: > 100 µM
- TGI [6]: > 100 µM
- TGI [7]: > 100 µM
- TGI [8]: > 100 µM
- TGI [9]: > 100 µM

Structure (SMILES): COc1cc(/C=C/C(=O)O)ccc1C(=O)O/C=C/c1ccccc1
- TGI [1]: > 100 µM
- TGI [3]: > 100 µM
- TGI [4]: > 100 µM
- TGI [5]: > 100 µM
- TGI [6]: > 100 µM
- TGI [7]: > 100 µM
- TGI [8]: > 100 µM
- TGI [9]: > 100 µM

Structure (SMILES): O=C(NC(Cc1c[nH]c2ccccc12)C(=O)O)/C(=C/c1ccccc1O)NC(=O)c1ccccc1 (configuration not stated)
- TGI [10]: 73.3 µM
- TGI [1]: > 100 µM
- TGI [2]: 36.9 µM
- TGI [3]: 75.5 µM
- TGI [4]: > 100 µM
- TGI [6]: > 100 µM
- TGI [7]: > 100 µM
- TGI [8]: > 100 µM
- TGI [9]: 24.9 µM

Structure (SMILES): COc1ccc(N2C(=O)c3c4c(c5c([nH]c6ncccc65)c3C2=O)CCC(C(C)(C)C)C4)cc1 (configuration not stated)
- TGI [10]: 72.2 µM
- TGI [1]: > 100 µM
- TGI [4]: > 100 µM
- TGI [6]: > 100 µM
- TGI [7]: > 100 µM
- TGI [8]: > 100 µM
- TGI [9]: > 100 µM

Structure (SMILES): O=c1c2c([nH]c3cc4c(cc13)OCO4)-c1ccccc1CC2
- TGI [1]: > 100 µM
- TGI [5]: > 100 µM
- TGI [6]: > 100 µM
- TGI [7]: > 100 µM
- TGI [8]: > 100 µM

Structure (SMILES): COc1cc2c(cc1OC)C(N(C)C)C(c1ccccc1)=C2Cl (configuration not stated)
- TGI [3]: 36.7 µM
- TGI [4]: 57.9 µM
- TGI [5]: 36 µM
- TGI [6]: 29.8 µM
- TGI [7]: 47.5 µM
- TGI [8]: 39.2 µM

Structure (SMILES): O=C1CCSSCCC(=O)NCCN1
- TGI [10]: > 100 µM
- TGI [1]: > 100 µM
- TGI [2]: > 100 µM
- TGI [3]: > 100 µM
- TGI [4]: > 100 µM
- TGI [5]: > 100 µM
- TGI [6]: > 100 µM
- TGI [7]: > 100 µM
- TGI [8]: > 100 µM

Structure (SMILES): COC(=O)c1ccccc1/C=C1/Cc2ccccc2C1=O
- TGI [10]: 97.3 µM
- TGI [1]: 62.8 µM
- TGI [2]: > 100 µM
- TGI [3]: > 100 µM
- TGI [4]: 96.5 µM
- TGI [6]: 85.5 µM
- TGI [7]: 88.7 µM
- TGI [8]: > 100 µM
- TGI [9]: > 100 µM

Structure (SMILES): COc1cc(OCc2ccc3oc(=O)c(-c4ccccc4)nc3c2)cc(OC)c1OC
- TGI [10]: > 100 µM
- TGI [1]: > 100 µM
- TGI [5]: > 100 µM
- TGI [6]: > 100 µM
- TGI [7]: > 100 µM
- TGI [8]: > 100 µM
- TGI [9]: > 100 µM

Structure (SMILES): CN(C)c1ccc(-c2c(C#N)c(S)n(NS(=O)(=O)c3ccccc3)c(=O)c2C#N)cc1
- TGI [1]: > 100 µM
- TGI [2]: 76.1 µM
- TGI [3]: > 100 µM
- TGI [4]: 47.7 µM
- TGI [5]: > 100 µM
- TGI [6]: > 100 µM
- TGI [7]: 73.5 µM
- TGI [9]: > 100 µM

Structure (SMILES): CCCCn1c2c(n(CCCC)c1=S)-c1c(n(CCCC)c(=S)n1CCCC)S[Se][Se]S2
- TGI [10]: 44.2 µM
- TGI [1]: 16.9 µM
- TGI [3]: 9.51 µM
- TGI [4]: > 53.5 µM
- TGI [5]: > 55.6 µM
- TGI [6]: 6.64 µM
- TGI [7]: 9.16 µM
- TGI [8]: > 80 µM
- TGI [9]: > 100 µM

Structure (SMILES): OC[C@@H](O)[C@H]1NC[C@@H](O)[C@H]1O
- TGI [10]: > 100 µM
- TGI [1]: > 100 µM
- TGI [2]: > 100 µM
- TGI [3]: > 100 µM
- TGI [4]: > 100 µM
- TGI [6]: > 100 µM
- TGI [7]: > 100 µM
- TGI [8]: > 100 µM
- TGI [9]: > 100 µM

Structure (SMILES): CC(C)(C)C1=Cc2cc3cc(C(C)(C)C)[nH]c(=O)c3cc2S(=O)(=O)N1
- TGI [1]: 42.8 µM
- TGI [2]: 38.5 µM
- TGI [3]: 39.3 µM
- TGI [4]: 94.6 µM
- TGI [5]: 38.2 µM
- TGI [6]: 44.8 µM
- TGI [8]: > 100 µM

Structure (SMILES): CC(=O)NS(=O)(=O)c1ccc(NC(=O)c2c3ccccc3nc3ccccc23)cc1
- TGI [1]: > 100 µM
- TGI [2]: > 100 µM
- TGI [3]: > 100 µM
- TGI [4]: > 100 µM
- TGI [5]: > 100 µM
- TGI [6]: > 100 µM
- TGI [7]: > 100 µM
- TGI [8]: > 100 µM
- TGI [9]: > 100 µM

Structure (SMILES): Cc1cc2c(C)cc(=O)[nH]c2cc1N
- TGI [1]: > 100 µM
- TGI [2]: > 100 µM
- TGI [3]: > 100 µM
- TGI [4]: > 100 µM
- TGI [6]: > 100 µM
- TGI [7]: > 100 µM
- TGI [8]: > 100 µM
- TGI [9]: > 100 µM

Structure (SMILES): CSC1CC2C(CC1(C)O)C2(C)C (configuration not stated)
- TGI [1]: > 100 µM
- TGI [2]: > 100 µM
- GI50 [3]: 25.5 µM and > 100 µM
- TGI [3]: > 100 µM
- TGI [4]: > 100 µM
- TGI [5]: > 100 µM
- TGI [6]: > 100 µM
- TGI [7]: > 100 µM
- TGI [8]: > 100 µM

Structure (SMILES): C/C(=C\c1ccccc1)C(=O)CCN1CCOCC1
- TGI [1]: > 56.4 µM
- TGI [2]: 32.5 µM
- TGI [3]: 37.1 µM
- TGI [4]: 31.2 µM
- TGI [5]: > 59.9 µM
- TGI [6]: 30.9 µM
- TGI [7]: > 61.9 µM
- TGI [8]: > 100 µM
- TGI [9]: 20.9 µM

Structure (SMILES): COc1ccc(/C(=N/O)c2ccccc2-c2nc3ccccc3c(=O)n2-c2ccc(S(=O)(=O)Nc3ncccn3)cc2)cc1C
- TGI [10]: > 100 µM
- TGI [1]: 22.1 µM
- TGI [2]: > 31.6 µM
- TGI [3]: 30.4 µM
- TGI [4]: > 31.6 µM
- TGI [6]: > 31.6 µM
- TGI [7]: > 31.6 µM
- TGI [8]: > 31.6 µM
- TGI [9]: 22.2 µM

Structure (SMILES): COc1cc(C2c3cc4c(cc3OC(NN=C(C)C)C2C)OCO4)cc(OC)c1O (configuration not stated)
- TGI [1]: > 100 µM
- TGI [2]: > 100 µM
- TGI [3]: > 100 µM
- TGI [4]: > 100 µM
- TGI [5]: 55.9 µM
- TGI [6]: > 100 µM
- TGI [7]: > 100 µM
- TGI [9]: > 100 µM

Structure (SMILES): COc1cc(/C=C2\C(=O)N(C(=O)Cc3ccccc3)N=C2C)ccc1O
- TGI [1]: > 100 µM
- TGI [2]: > 100 µM
- TGI [4]: > 100 µM
- TGI [5]: > 100 µM
- TGI [6]: > 100 µM

Structure (SMILES): COc1ccccc1NC(=O)CC(=O)N1N=C(C)C(N=Nc2ccc(S(N)(=O)=O)cc2)C1=O (configuration not stated)
- TGI [1]: > 100 µM
- TGI [2]: > 100 µM
- TGI [3]: > 100 µM
- TGI [4]: > 100 µM
- TGI [5]: > 100 µM
- TGI [6]: > 100 µM
- TGI [7]: > 100 µM
- TGI [8]: > 100 µM

Structure (SMILES): COCOc1ccc(OC)cc1
- TGI [1]: > 100 µM
- TGI [2]: > 100 µM
- TGI [3]: > 100 µM
- TGI [4]: > 100 µM
- TGI [5]: > 100 µM
- TGI [6]: > 100 µM
- TGI [7]: > 100 µM
- TGI [8]: > 100 µM
- TGI [9]: > 100 µM

Structure (SMILES): CCN(CC)CCOC(NC(C)=O)(c1ccccc1)c1ccccc1
- TGI [10]: > 100 µM
- TGI [1]: > 100 µM
- TGI [3]: > 100 µM
- TGI [4]: > 100 µM
- TGI [6]: > 100 µM
- TGI [7]: > 100 µM
- TGI [8]: > 100 µM
- TGI [9]: > 100 µM

Source: PubChem BioAssay (NCI)
